Patent publication US5635197A, “Treatment and prevention of prostatic cancer metastasis” (priority 1995, dated 1997)

These compounds were tested against T1, Human Type I Steroid 5α-Reductase (Homo sapiens, UniProt P18405) (assay: Human Type I steroid 5α-reductase homogenate assay (conversion of [3H]-testosterone to [3H]-5α-dihydrotestosterone)). Conditions: 0.3 μM concentration; compared to control reaction mixtures; enzyme from human scalp, pH 7.5, 25°, 180 min.
T1 construct: Preparation of Type I 5α-Reductase from Human Scalp; from tissue; host or cells: human scalp punch biopsies from hair transplant procedures; 100,000 x g pellet of skin homogenate
T1 sequence (P18405 1-259): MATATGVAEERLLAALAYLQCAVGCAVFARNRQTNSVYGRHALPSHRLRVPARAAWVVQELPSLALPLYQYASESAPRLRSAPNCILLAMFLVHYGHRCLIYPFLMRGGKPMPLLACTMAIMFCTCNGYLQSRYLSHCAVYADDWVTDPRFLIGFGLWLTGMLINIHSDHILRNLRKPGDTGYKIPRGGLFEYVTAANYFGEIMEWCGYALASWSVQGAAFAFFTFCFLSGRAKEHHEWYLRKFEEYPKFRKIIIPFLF
Type: biochemical
Excerpt: Methodology of Human Type I Steroid 5α-Reductase Assays
Approximately 60-75 punches from one surgical procedure were used to generate an enzyme preparation. The subcutaneous tissue was cut away and discarded. The skin was frozen with liquid nitrogen and pulverized to powder. […] The homogenization procedure consisted of four 15 second pulses. Connective tissue was cleared from the probe with forceps between pulses. […] The pellet was resuspended by homogenization with a Dounce homogenizer using the same buffer solution. […] Aliquots of the enzyme preparation were stored at -80° until use.
The reaction was initiated by the addition of 0.5 mg of Type I 5α-reductase. The reaction mixture was incubated at 25° for 180 min, and terminated by the addition of 1 mL ice-cold stopping solution. […] The samples were prepared for high performance liquid chromatography by solid phase extraction. […] The reaction mixtures were then applied to the columns. The columns were subsequently washed with 5 mL of acetone:water (1:4), followed by 0.3 mL of methanol. The samples were then eluted with 3 mL of methanol and collected in 20 mL scintillation vials. Three mL of water was then added to each scintillation vial. […] The column temperature was maintained at 35° and the flow rate was 1.5 mL/min.

Compound | percent inhibition of Type I 5AR [%]
CN1C(=O)CC[C@]2(C)c3ccc(-c4ccc(-c5ccc(NC(=O)C(C)(C)C)s5)cc4)cc3CC[C@@H]12 [Example 222, (+)-(4aR)-(10bR)-4-methyl-8-(4-[(2-t-butylcarbonylamino]-5-thienyl]phenyl)-10b-methyl-1,2,3,4,4a,5,6,10b-octahydrobenzo[f]quinolin-3-one] | 86
(+)-(4aR)-(10bR)-4-methyl-8-(3-t-butylcarboxamidophenyl)-10b-methyl-1,2,3,4,4a,5,6,10b-octahydrobenzo[f]quinolin-3-one [Example 34] | 13
(+)-(4aR)-(10bR)-4-methyl-8-benzyloxycarbonyl-10b-methyl-1,2,3,4,4a,5,6,10b-octahydrobenzo[f]quinolin-3-one [Example 144] | 90
(+)-(4aR)-(10bR)-4-methyl-8-(3-[1-benzyl-4-piperidinylcarboxamido]phenyl)-10b-methyl-1,2,3,4,4a,5,6,10b-octahydrobenzo[f]quinolin-3-one [Example 209] | 24
